2 substances from patent US20080311589A1, “METHOD OF HIGH-THROUGHPUT SCREENING OF MOLECULES AND COMPOUNDS FOR THEIR EFFECTS ON BIOLOGICAL AND CHEMICAL PROCESSES” (priority 1999, published 2008) can be followed below.

Test [1] relates to transiently transfected TGFβ-responsive reporter. The experiment in a line: transient transfection luciferase assay, p3TPLux. It is filed as cell-based, mink. As for the experimental part:
LUCIFERASE ASSAYS: Our transient transfection luciferase assay was described previously by us (Stockwell et al., Chem Biol 5:385, 1998). Briefly, 100,000 Mv1Lu mink lung epithelial cells were transiently transfected in 12-well dishes with 400 ng p3TPLux or pNFkB-Lux, with or without 50 ng pFC-MEKK, in 300 μL minimal essential medium with non-essential amino acids. The DEAE-dextran/chloroquine/DMSO methods was used for transfection (Stockwell et al., Chem Biol 6:71, 1999). After cell lysis in 120 μL lysis buffer, a Beckman LS 6500 liquid scintillation counter was used in single photon mode to quantitate luminescence. For detection of luciferase activity in 6F cells (including the primary screen), 20,000 6F cells were seeded in 50 μL of 10% mink medium in each well of a white 384-well plate (Nalge Nune International; Naperville, Ill.; cat#164610) using a Multidrop 384 liquid dispenser (Lab Systems; Helsinki, Finland). After 16 hours, medium was removed using a 24 channel wand (V&P Scientific, Inc.; San Diego, Calif.; cat#VP 186L), the cells were washed with 75 μL of 0.2% mink medium (containing 0.2% FBS), and reagents were added in 40 μL of 0.2% medium. For the primary screen, reagents were added by pin transfer using 384 polypropylene pin arrays (Matrix Technologies; Hudson, N.H.). After 24 hours, the cells were cooled on ice and washed twice with 75 μL Hanks Balanced Salt Solution (HBSS; GibcoBRL; cat#24020-117). Then 20 μL lysis buffer (25 mM glycylglycine (Sigma; cat#E-0396), 1% Triton X-100 (Sigma; cat#T-9284), 1 mM dithiothreitol (DTT; Sigma; cat#D-5545), 1 mM phenylmethylsulfonyl fluoride (PMSF; Sigma; cat#P-7626)) was added to each well with a Multidrop. After incubating the cells for five minutes on ice, 20 μL of ATP/luciferin solution was added (25 mM glycylglycine pH 7.8, 15 mM MgSO4, 4 mM EGTA, 6.25 mM K2HPO4 (Sigma; cat#P5504) pH 7.8, 5 mM DTT, 75 μM D-luciferin (Sigma, cat# L-9504, 2 mM ATP (Sigma; cat#A-7699)). Light output was immediately measured with an Analyst 384-well platereader (LJL), with 0.5 second counting time per well.

Test [2] has as its system Mv1Lu mink lung epithelial cells. Description: 1536 well BrdU cytoblot. The settings on record: 1536-well plate, approximately 500 cells per well. It is filed as cell-based. As for the experimental part:
FIG. 3. BrdU incorporation can be efficiently detected with a cytoblot in 1536 well plates in 2 μL droplets. 500 Mv1Lu mink lung epithelial cells were seeded in each well of a white, opaque 1536 well plate (Corning/Costar, Corning, N.Y.). The cells were seeded with or without […] TGF-β in 2 μL of 1% mink medium and allowed to incubate at 37° C. with 5% CO2. After 24 hours, 0.5 μL of 50 μM BrdU in 1% mink medium was added to the indicated wells, for a final concentration of 10 μM BrdU. The plate were incubated at 37° C. with 5% CO2 for an additional 12 hours and then an anti-BrdU cytoblot protocol was performed (see protocols). Wells are magnified as indicated.
Thus, the application of the cytoblot assay to plates containing a higher density of wells was tested. Mink lung cells were seeded into opaque, white 1536-well plates with each well containing approximately 500 cells. Next, the ability of TGF-β to prevent BrdU incorporation was assayed. […] The following protocol provides experimental detail.
The reagents to be tested were prepared in 1536 well plates (Greiner America, Lake Mary, Fla.), with one or more test compounds per well. If the test compounds were attached on solid support (beads), then the beads were distributed into individual wells of 1536 well white plate in acetonitrile. […]

Test [3] deals with BS-C-1 cells. Description: fluorescence microscopy and live imaging of BS-C-1 cells. It is filed as cell-based, monkey.
Protocol: We investigated the phenotype of mammalian cells (BS-C-I) treated with the compounds of group III. […] Our examination of the distribution of microtubules, actin, and chromatin in fixed cells by fluorescence microscopy allowed us to divide the small molecules into three classes.
In brief, BSCI cells were seeded on glass coverslips and cultured overnight.
We then asked whether the chromosomes surrounding the monoastral microtubule array maintain microtubule attachment.

In the case of “TGF-β: anti-mitogen transforming growth factor β, multifunctional polypeptide signaling factor”, in test [1], the “activation of transiently versus stably transfected TGFβ-responsive reporter” value is “equally effective”. Besides, the BrdU incorporation result in test [2] is recorded as “effectively prevents BrdU incorporation”.
Turning to monastrol, the “mitotic cells displaying the monoastral phenotype” value in test [3] is “Over 90%”. Besides, the “microtubule, spindle and chromosome phenotype” value in test [3] (BS-C-1 cells, 1A at 40 μM for 4 hours) was “the bipolar spindle was replaced with a monoastral microtubule array surrounded by a ring of chromosomes”. In addition, the “chromosome attachment to microtubules” value in test [3] (live images of BS-C-1 cells) is recorded as “does not inhibit chromosome attachment to microtubules”.
